According to ChEMBL document CHEMBL1144002, “N6-substituted C5'-modified adenosines as A1 adenosine receptor agonists” (Bioorg Med Chem, 2008):

Experiments:
[1] = test system: Adenosine receptor A1 (Mesocricetus auratus); test: Ratio of Ki to IC50 for adenosine A1 receptor
[2] = target: Adenosine receptor A1 (Mesocricetus auratus); test: Displacement of [3H]CPX from adenosine A1 receptor in DDT1MF-2 cells
[3] = target: Adenosine receptor A1 (Mesocricetus auratus); test: Agonist activity at adenosine A1 receptor assessed as inhibition of isoproterenol-stimulated cAMP accumulation in DDT1MF-2 cells
[4] = test system: Adenosine receptor A1 (Mesocricetus auratus); test: Intrinsic activity at adenosine A1 receptor assessed as maximal inhibition of isoproterenol-stimulated cAMP accumulation in DDT1MF-2 cells relative to CPA

Row | SMILES | Ratio [1] | Ki [2] [nM] | IC50 [3] [nM] | Intrinsic activity [4]
1 | CNC(=O)O[C@H]1O[C@@H](n2cnc3c(N[C@H]4C[C@@H]5C[C@@H]4C4SC45)ncnc32)[C@H](O)[C@@H]1O (stereo partly drawn) | 1.3 | 590 | 410 | 1.03
2 | C[Se]C[C@H]1O[C@@H](n2cnc3c(N[C@H]4C[C@@H]5C[C@@H]4C4SC45)ncnc32)[C@H](O)[C@@H]1O (stereo partly drawn) | 1.3 | 30 | 12 | 0.96
3 | CC(=O)NC[C@H]1O[C@@H](n2cnc3c(N[C@H]4C[C@H]5CC[C@H]4C5)ncnc32)[C@H](O)[C@@H]1O | 1.3 | 5860 | 605 | 0.97
4 | CCNC(=O)[C@H]1O[C@@H](n2cnc3c(N[C@H]4C[C@@H]5C[C@@H]4C4SC45)ncnc32)[C@H](O)[C@@H]1O (stereo partly drawn) | 1.3 | 0.9 | 0.12 | 0.98
5 | CCSC[C@H]1O[C@@H](n2cnc3c(NC4CCCC4)ncnc32)[C@H](O)[C@@H]1O |  | 173 | 21 | 1.02

Further lines, results first:

Row | Ratio [1] | Ki [2] [nM] | IC50 [3] [nM] | Intrinsic activity [4] | SMILES
6 | 1.3 | 17 | 7 | 0.97 | O[C@@H]1[C@H](O)[C@@H](CF)O[C@H]1n1cnc2c(N[C@H]3C[C@H]4CC[C@H]3C4)ncnc21
7 | 1.3 | 3930 | 351 | 0.92 | NC[C@H]1O[C@@H](n2cnc3c(N[C@H]4C[C@H]5CC[C@H]4C5)ncnc32)[C@H](O)[C@@H]1O
8 | 1.3 | 7200 | 4950 | 0.91 | CCCNC[C@H]1O[C@@H](n2cnc3c(N[C@H]4C[C@H]5CC[C@H]4C5)ncnc32)[C@H](O)[C@@H]1O
9 | 1.3 | 122 | 28 | 1.04 | CCSC[C@H]1O[C@@H](n2cnc3c(N[C@H]4C[C@H]5CC[C@H]4C5)ncnc32)[C@H](O)[C@@H]1O
10 | 1.3 | 283 | 224 | 1 | O[C@@H]1[C@H](O)[C@@H](CS)O[C@H]1n1cnc2c(N[C@H]3C[C@H]4CC[C@H]3C4)ncnc21
11 | 1.3 | > 10000 | 867 | 0.83 | CNC[C@H]1O[C@@H](n2cnc3c(N[C@H]4C[C@H]5CC[C@H]4C5)ncnc32)[C@H](O)[C@@H]1O
